Experimental findings from patent US11878970B2, “Allosteric chromenone inhibitors of phosphoinositide 3-kinase (PI3K) for the treatment of disease” (Petra Pharma Corporation, priority 2021, dated 2024) are described below.

In assay [1] the target is T1, PI3K-α (PIK3CA) wild-type (WT), p110α/p85α complex (Homo sapiens, UniProt P42336).
T1 construct: Recombinant, catalytically active human full length PIK3KA Wild-type and H1047R mutant; 6×His (N); purchased EMD Millipore Sigma 14-602M
Description: PI3K-alpha kinase (PIK3CA) biochemical activity, ADP-Glo, wild-type. The conditions noted are these: Soy PI lipid substrate. The text has this: (§1) PI3K-Alpha Kinase (PIK3CA) Activity, Wild-Type and H1047R Mutant and Determining IC50 Values for Inhibitors
(§2) Recombinant, catalytically active human full length PIK3KA Wild-type and H1047R mutant were purchased as 1:1 complex of N-terminal 6×his tagged p110α (catalytic) and untagged p85α (regulatory subunit) from EMD Millipore Sigma (cat. no. 14-602M and 14-792M, respectively). PIP2diC8 (Avanti Polar Lipids Inc., cat. no. 850185) or Soy PI (Avanti Polar Lipids Inc., cat. No. 840044P) was used as lipid substrate. PIP2diC8 or PI lyophilized powder was dissolved in milliQ water to a concentration of 1 mM just before use. 10 mM stock compounds in DMSO were serially diluted 1:3 to generate a 10-point curve and plated using an acoustic liquid handler system (Echo 550 series instrument, Labcyte). A 10× intermediate compound plate (200 uM starting compound concentration and 10% DMSO) was prepared before starting the reaction. A typical reaction mixture (50 uL) comprised 40 mM HEPES buffer, pH 7.4, 25 mM MgCl2, 0.01% v/v triton-X-100, 1% v/v DMSO, 20 mM NaCl, 1-5 nM WT or H1047R PI3K protein, 20 uM ATP, and 50 uM PIP2diC8 or Soy PI. 1% DMSO buffer alone without test compound was employed as MAX control (full activity in the absence of any inhibitor), and no enzyme control was used to determine the level of background Adenosine 5′-diphosphate (ADP) (MIN control). First, Wild-type (WT) and H1047R mutant protein in kinase buffer with all components except ATP were incubated with or without compound at 27° C. for 1 h. After the pre-incubation, the reaction was initiated by the addition of 20 uL of 50 uM ATP (20 uM final concentration). The reaction was allowed to proceed until about 10% conversion of ATP (2 uM ADP) at 27° C. After that time, 5 uL of reaction was mixed with 5 uL of ADP-Kinase Glo Reagent (ADP-Glo Kinase assay kit, Promega cat. no. V9102) supplemented with MgCl2 10 mM to stop the reaction and deplete the remaining ATP for 40 min at room temperature. Then, 10 uL of Kinase Detection Reagent (ADP-Glo Kinase assay kit, Promega cat. no. V9102) was added to simultaneously convert ADP to ATP and allow the newly synthesized ATP to be measured using a luciferase/luciferin reaction. After 30 min at room temperature the light generated was measured using a luminometer (EnVision plate reader, Perkin Elmer). Process data through Genedata-Screener tool. Relative IC50 values are determined using luminescence units by calculating percent inhibition with respect to on-plate “MIN” and “MAX” controls. Data was analyzed using a 4-parameter nonlinear logistic equation (four-parameter logistic concentration-response curve): Y=bot+[(top−bot)/1+(x/IC50)slope] where Y=% inhibition, X=concentration yielding y % inhibition, Bottom=minimum value of y attained by curve, Top=maximum value of y attained by curve and Slope=steepness of curve at IC50. % Inh=[(median Max−x/median Max−median Min)]·100 IC50: concentration of compound that reduces a given response (ligand binding, enzyme response) by 50%. IC50 relative: concentration giving half the compound's maximum response.

The target of assay [2] is T2, PI3K-α (PIK3CA) H1047R mutant, p110α/p85α complex (Homo sapiens, UniProt P42336, H1047R).
T2 construct: Recombinant, catalytically active human full length PIK3KA Wild-type and H1047R mutant; 6×His (N); purchased EMD Millipore Sigma 14-792M
T2 sequence (P42336 whole entry H1047R): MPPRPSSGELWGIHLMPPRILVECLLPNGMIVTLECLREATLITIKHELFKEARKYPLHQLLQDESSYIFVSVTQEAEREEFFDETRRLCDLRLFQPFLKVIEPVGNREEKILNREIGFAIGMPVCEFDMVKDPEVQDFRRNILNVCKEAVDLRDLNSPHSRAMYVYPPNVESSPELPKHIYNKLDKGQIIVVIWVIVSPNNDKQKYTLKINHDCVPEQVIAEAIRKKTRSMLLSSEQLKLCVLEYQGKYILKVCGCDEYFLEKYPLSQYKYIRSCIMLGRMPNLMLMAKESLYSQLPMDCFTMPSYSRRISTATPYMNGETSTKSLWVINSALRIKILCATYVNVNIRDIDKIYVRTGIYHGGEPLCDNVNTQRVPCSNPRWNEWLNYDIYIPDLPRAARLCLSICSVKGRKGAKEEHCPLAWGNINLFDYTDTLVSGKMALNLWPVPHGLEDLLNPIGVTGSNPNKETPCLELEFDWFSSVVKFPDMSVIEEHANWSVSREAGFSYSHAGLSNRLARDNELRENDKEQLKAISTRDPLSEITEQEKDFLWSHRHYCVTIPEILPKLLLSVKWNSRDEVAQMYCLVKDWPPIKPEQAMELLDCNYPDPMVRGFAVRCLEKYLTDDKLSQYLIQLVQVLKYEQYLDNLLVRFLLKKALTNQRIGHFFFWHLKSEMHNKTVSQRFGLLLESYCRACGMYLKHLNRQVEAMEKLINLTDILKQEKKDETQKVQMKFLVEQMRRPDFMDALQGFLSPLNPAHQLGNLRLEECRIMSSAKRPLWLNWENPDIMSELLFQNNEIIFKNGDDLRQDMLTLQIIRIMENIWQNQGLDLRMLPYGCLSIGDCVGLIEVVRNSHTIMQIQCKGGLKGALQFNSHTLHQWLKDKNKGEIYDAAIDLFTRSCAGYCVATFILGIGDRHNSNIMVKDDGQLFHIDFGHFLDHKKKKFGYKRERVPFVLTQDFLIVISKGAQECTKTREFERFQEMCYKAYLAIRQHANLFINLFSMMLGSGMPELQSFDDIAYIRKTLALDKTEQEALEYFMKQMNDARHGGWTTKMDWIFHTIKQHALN
T2 sequence (P27986 whole entry partner): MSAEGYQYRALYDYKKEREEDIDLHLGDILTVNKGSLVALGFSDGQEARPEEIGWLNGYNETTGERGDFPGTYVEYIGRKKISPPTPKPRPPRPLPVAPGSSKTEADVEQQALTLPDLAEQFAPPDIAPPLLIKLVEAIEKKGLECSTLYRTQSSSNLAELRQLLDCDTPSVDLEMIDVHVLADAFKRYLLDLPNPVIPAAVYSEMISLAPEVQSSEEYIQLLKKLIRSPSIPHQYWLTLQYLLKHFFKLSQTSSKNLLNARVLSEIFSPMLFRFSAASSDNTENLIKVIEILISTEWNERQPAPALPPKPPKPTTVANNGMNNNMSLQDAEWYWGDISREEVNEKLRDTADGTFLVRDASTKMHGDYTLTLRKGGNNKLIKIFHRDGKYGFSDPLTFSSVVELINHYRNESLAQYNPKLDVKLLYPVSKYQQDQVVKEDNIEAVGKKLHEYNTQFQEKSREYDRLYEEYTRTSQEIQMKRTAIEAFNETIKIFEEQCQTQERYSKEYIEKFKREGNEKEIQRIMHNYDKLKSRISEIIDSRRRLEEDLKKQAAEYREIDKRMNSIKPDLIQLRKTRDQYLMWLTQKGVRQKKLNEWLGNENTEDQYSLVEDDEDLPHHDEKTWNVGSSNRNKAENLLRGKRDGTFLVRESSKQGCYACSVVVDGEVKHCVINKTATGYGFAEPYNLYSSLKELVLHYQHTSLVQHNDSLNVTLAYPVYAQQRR
Kind of assay: PI3K-alpha kinase (PIK3CA) biochemical activity, ADP-Glo, H1047R mutant. As to conditions: Soy PI lipid substrate.
Description: as §1, §2

The IC50 is the concentration needed to halve the response being measured.

Structures are written as SMILES.

`Cc1cc(C(C)Nc2cccc(F)c2C(=O)O)c2oc(-c3ccc4nn(C)cc4c3)cc(=O)c2c1` (stereo not shown) [Example 103, 2-Fluoro-6-[1-[6-methyl-2-(2-methylindazol-5-yl)-4-oxo-chromen-8-yl]ethylamino]benzoic acid]: the concentration for half-maximal inhibition (IC50) in assay [1] was 1000 to 5000 nM; in assay [2] it was below 500 nM.
Taken in the same sequence, the figures for `Cc1cc(C(C)Nc2ccccc2C(=O)O)c2oc(-c3nn(C)c4ccccc34)cc(=O)c2c1` (stereo not shown) [Example 12, 2-[1-[6-Methyl-2-(1-methylindazol-3-yl)-4-oxo-chromen-8-yl]ethylamino]benzoic acid] were 5000 to 10000 nM and below 500 nM.
In the case of `Cc1cc(C(C)Nc2ccccc2C(=O)O)c2oc(-c3cc4ncccc4[nH]3)cc(=O)c2c1` (single isomer, unassigned) [Example 147, 2-[1-[6-Methyl-4-oxo-2-(1H-pyrrolo[3,2-b]pyridin-2-yl)chromen-8-yl]ethylamino]benzoic acid], the results for the half-maximal inhibitory concentration (IC50) in assay [1] and in assay [2] were 1000 to 5000 nM and below 500 nM, respectively.
In the case of `Cc1cc(C(C)Nc2ccccc2C(=O)O)c2oc(-c3cnn4cccnc34)cc(=O)c2c1` (stereo not shown) [Example 6, 2-[1-(6-Methyl-4-oxo-2-pyrazolo[1,5-a]pyrimidin-3-yl-chromen-8-yl)ethylamino]benzoic acid], the IC50 in assay [1] was 1000 to 5000 nM; in assay [2], below 500 nM.
Taken in the same sequence, the figures for `CC(Nc1ccc(Cl)nc1C(=O)O)c1cc(C(F)(F)F)cc2c(=O)cc(-c3cc(Cl)c4nn(C)cc4c3)oc12` (single isomer, unassigned) [Example 194, 6-Chloro-3-[1-[2-(7-chloro-2-methyl-indazol-5-yl)-4-oxo-6-(trifluoromethyl)chromen-8-yl]ethylamino]pyridine-2-carboxylic acid] were 500 to 1000 nM and 500 to 1000 nM.
Taken in the same sequence, the figures for `Cc1cc(C(C)Nc2ccc(C)nc2C(=O)O)c2oc(-c3ccc4nn(C)cc4c3)c(C)c(=O)c2c1` (single isomer, unassigned) [Example 175, 3-[1-[3,6-Dimethyl-2-(2-methylindazol-5-yl)-4-oxo-chromen-8-yl]ethylamino]-6-methyl-pyridine-2-carboxylic acid] were 500 to 1000 nM and below 500 nM.
Taken in the same sequence, the figures for `Cc1cc([C@@H](C)Nc2ccc(C)nc2C(=O)O)c2oc(-c3ccc4nn(C)cc4c3)c(C)c(=O)c2c1` [Example 200, 3-[[(1R)-1-[3,6-Dimethyl-2-(2-methylindazol-5-yl)-4-oxo-chromen-8-yl]ethyl]amino]-6-methyl-pyridine-2-carboxylic acid] were 500 to 1000 nM and below 500 nM.
Take `Cc1cc(C(C)Nc2ccccc2C(=O)O)c2oc(-c3c4ccccc4nn3C)cc(=O)c2c1` (single isomer, unassigned) [Example 119, 2-[1-[6-Methyl-2-(2-methylindazol-3-yl)-4-oxo-chromen-8-yl]ethylamino]benzoic acid]: the IC50 in assay [1] and in assay [2] was 1000 to 5000 nM each time.
Take `Cc1cc(C(C)Nc2ccccc2C(=O)O)c2oc(-c3ccc4ccn(C)c4n3)cc(=O)c2c1` (single isomer, unassigned) [Example 159, 2-[1-[6-Methyl-2-(1-methylpyrrolo[2,3-b]pyridin-6-yl)-4-oxo-chromen-8-yl]ethylamino]benzoic acid]: the IC50 was 1000 to 5000 nM in assay [1] and below 500 nM in assay [2].
Taken in the same sequence, the figures for `Cc1cc(C(C)Nc2ccccc2C(=O)O)c2oc(-c3cnc4nn(C)cc4c3)cc(=O)c2c1` (single isomer, unassigned) [Example 41, 2-[1-[6-Methyl-2-(2-methylpyrazolo[3,4-b]pyridin-5-yl)-4-oxo-chromen-8-yl]ethylamino]benzoic acid] were 5000 to 10000 nM and 1000 to 5000 nM.
Taken in the same sequence, the figures for `Cc1cc(C(C)Nc2ccc(Cl)nc2C(=O)O)c2oc(-c3ccc4nn(C)cc4c3)c(C)c(=O)c2c1` (single isomer, unassigned) [Example 181, 6-Chloro-3-[1-[3,6-dimethyl-2-(2-methylindazol-5-yl)-4-oxo-chromen-8-yl]ethylamino]pyridine-2-carboxylic acid] were below 500 nM and below 500 nM.
For the compound `Cc1cc(C(C)Nc2ccccc2C(=O)O)c2oc(-c3cn4ccccc4n3)cc(=O)c2c1` (single isomer, unassigned) [Example 66, 2-[1-(2-Imidazo[1,2-a]pyridin-2-yl-6-methyl-4-oxo-chromen-8-yl)ethylamino]benzoic acid], the values for the IC50 in assay [1] and in assay [2] were 5000 to 10000 nM and 1000 to 5000 nM, respectively.
Taken in the same sequence, the figures for `Cc1cc(C(C)Nc2ccccc2C(=O)O)c2oc(-c3ccn4c(-c5cccnc5)c(C)nc4c3)cc(=O)c2c1` (single isomer, unassigned) [Example 112, 2-[1-[6-Methyl-2-[2-methyl-3-(3-pyridyl)imidazo[1,2-a]pyridin-7-yl]-4-oxo-chromen-8-yl]ethylamino]benzoic acid] were 1000 to 5000 nM and 500 to 1000 nM.
For `Cc1cc(C(C)Nc2ccccc2C(=O)O)c2oc(-c3ccc4c(c3)c(C)nn4C)cc(=O)c2c1` (single isomer, unassigned) [Example 165, 2-[1-[2-(1,3-Dimethylindazol-5-yl)-6-methyl-4-oxo-chromen-8-yl]ethylamino]benzoic acid], the concentration for half-maximal inhibition (IC50) in assay [1] and in assay [2] was below 500 nM each time.
Turning to `Cc1cn2nc(-c3cc(=O)c4cc(C(F)(F)F)cc(C(C)Nc5ccccc5C(=O)O)c4o3)ccc2n1` (single isomer, unassigned) [Example 101, 2-[1-[2-(2-Methylimidazo[1,2-b]pyridazin-6-yl)-4-oxo-6-(trifluoromethyl)chromen-8-yl]ethylamino]benzoic acid], the values for the IC50 in assay [1] and in assay [2] were 1000 to 5000 nM and below 500 nM, respectively.
On to `Cc1cc(C(C)Nc2ccccc2C(=O)O)c2oc(-c3ccc4nn(CC(C)(C)O)cc4c3)cc(=O)c2c1` (single isomer, unassigned) [Example 122, 2-[1-[2-[2-(2-Hydroxy-2-methyl-propyl)indazol-5-yl]-6-methyl-4-oxo-chromen-8-yl]ethylamino]benzoic acid], for which the IC50 is above 10000 nM in assay [1] and 500 to 1000 nM in assay [2].
Taken in the same sequence, the figures for `Cc1cc(C(C)Nc2ccccc2C(=O)O)c2oc(-c3ccn4ccnc4c3)cc(=O)c2c1` (single isomer, unassigned) [Example 80, 2-[1-(2-Imidazo[1,2-a]pyridin-7-yl-6-methyl-4-oxo-chromen-8-yl)ethylamino]benzoic acid] were 1000 to 5000 nM and below 500 nM.
For `CC(Nc1ccc(Cl)nc1C(=O)O)c1cc(C(F)(F)F)cc2c(=O)cc(-c3cc4ccccc4[nH]3)oc12` (single isomer, unassigned) [Example 100, 6-Chloro-3-[1-[2-(1H-indol-2-yl)-4-oxo-6-(trifluoromethyl)chromen-8-yl]ethylamino]pyridine-2-carboxylic acid], the IC50 was above 10000 nM in assay [1] and below 500 nM in assay [2].
Taken in the same sequence, the figures for `Cc1cc(C(C)Nc2ccccc2C(=O)O)c2oc(-c3c[nH]c4ccccc34)cc(=O)c2c1` (single isomer, unassigned) [Example 155, 2-[1-[2-(1H-Indol-3-yl)-6-methyl-4-oxo-chromen-8-yl]ethylamino]benzoic acid] were 1000 to 5000 nM and below 500 nM.
For `Cc1cc(C(C)Nc2ccccc2C(=O)O)c2oc(-c3cnn4ccccc34)cc(=O)c2c1` (single isomer, unassigned) [Example 29, 2-[1-(6-Methyl-4-oxo-2-pyrazolo[1,5-a]pyridin-3-yl-chromen-8-yl)ethylamino]benzoic acid], the half-maximal inhibitory concentration (IC50) in assay [1] is 5000 to 10000 nM; in assay [2], below 500 nM.
